Here are results for one substance from PMC7924852, “The Emericellipsins A–E from an Alkalophilic Fungus Emericellopsis alkalina Show Potent Activity against Multidrug-Resistant Pathogenic Fungi” (Journal of Fungi, 2021).

The subject of experiment [1] is clinical isolates of Candida. The experiment is described as follows: Disc-diffusion antifungal assay, clinical yeast isolates. Particulars: range over clinical isolates of Candida (Figure S2). Type of experiment: cell-based.
The test system of experiment [2] is MDA-MB-231 (breast cancer line). In words: MTT cytotoxicity assay. The following applies: 72 h, three experiments, each in triplicate. Type of experiment: cell-based. As for the experimental part: (§1) Experiments for determining the cytotoxic activity of the compound in MTT assays were performed as previously described. The following tumor cell lines were used for this study: HCT-116 (colon cancer cell line), B16 (mouse melanoma cell line), K-562 (leukemia cell line), MDA-MB-231 (breast cancer line), and MCF-7 (breast cancer cell). Human postnatal fibroblasts were used as a normal cell line, and doxorubicin was used as a positive control. The cell lines were cultured in Dulbecco modified Eagle’s medium supplemented with 5% fetal calf serum, 2 mM Lglutamine, 100 U/mL penicillin, and […] streptomycin at 37 °C, 5% CO2 in a humidified atmosphere. Experiments were carried out on cells in the logarithmic phase of growth. The peptide was dissolved in DMSO as a 10 mM stock solution, followed by serial dilutions in water immediately before the experiment. Briefly, cells (5 × 10^3 in […] of culture medium) were plated in a 96-well plate and treated with 0.1% DMSO (blank control) or with […] of the peptide (0.10‒50 μM; each concentration in duplicate) for 72 h. After incubation with peptide, […] of aqueous MTT solution (3-(4,5-dimethylthiazol-2-yl)-2,5-diphenyltetrazolium bromide, 5 mg/mL) were added into each well for 2‒3 h. Formazan was dissolved in DMSO, and the absorbance at 570 nm was measured. The cytotoxicity at a given EmiA concentration was calculated as the percentage of absorbance in wells with peptide-treated cells compared to that of blank control cells (100%). The IC50 (50% growth inhibitory concentration) was defined as the concentration of EmiA that inhibited MTT conversion by 50%. All the experiments were repeated three times, each time in triplicate. EmiA was tested at a range of concentrations, 0.1‒10 μM.

The test system of experiment [3] is MCF-7 (breast cancer cell). In words: MTT cytotoxicity assay. The following applies: 72 h, three experiments, each in triplicate. Type of experiment: cell-based. How it is done: as §1
For orientation: Tetrazolium assays rely on reduction of a dye to a coloured formazan, in cell work by metabolically active cells.

Experiment [4] deals with B16 (mouse melanoma cell line). The experiment is described as follows: MTT cytotoxicity assay. Type of experiment: cell-based. Particulars: 72 h, three experiments, each in triplicate. As for the experimental part:
as §1

The subject of experiment [5] is HPF (human postnatal fibroblasts, normal cell line). The experiment is described as follows: MTT cytotoxicity assay. Type of experiment: cell-based. How it is done:
as §1

Experiment [6] deals with HCT-116 (colon cancer cell line). In words: MTT cytotoxicity assay. Type of experiment: cell-based. Particulars: 72 h, three experiments, each in triplicate. How it is done: as §1
For experiment [7], the system named is clinical yeast isolates (Candida, Cryptococcus). The experiment is described as follows: Broth microdilution MIC/MFC, pathogenic multidrug yeast strains. Type of experiment: cell-based. Particulars: isolates of C. albicans, C. glabrata and C. neoformans.
A further experiment relates to A. fumigatus VKM F-37. In words: Disc-diffusion antifungal assay. Particulars: 40 µg/disc. The experiment is classed as cell-based, Aspergillus fumigatus. Background: A growth-free zone around the sample is the usual read-out of agar diffusion tests.
The test system of the next experiment is A. niger ATCC 16404. The experiment is described as follows: Broth two-fold microdilution MIC (CLSI). Type of experiment: cell-based, Aspergillus niger. The following applies: A. niger ATCC 16404; RPMI 1640 pH 7.0, 35 °C, 48 h, no visible growth. For orientation: In broth dilution the organism is exposed to a series of concentrations in liquid medium.
In experiment [8] the test system is A. terreus 497. In words: Disc-diffusion antifungal assay. The experiment is classed as cell-based. The following applies: 40 µg/disc; A. terreus 497, pathogenic clinical isolate.
The subject of experiment [9] is A. terreus 3 K. In words: Broth two-fold microdilution MIC (CLSI). Type of experiment: cell-based. The following applies: A. terreus 3 K; RPMI 1640 pH 7.0, 35 °C, 48 h.
The test system of another experiment is C. tropicalis 156. In words: Broth microdilution MIC and MFC (CLSI). Type of experiment: cell-based.
The test system of experiment [10] is A. terreus 3 K. The experiment is described as follows: Disc-diffusion antifungal assay. The experiment is classed as cell-based. Particulars: 40 µg/disc.
A further experiment deals with C. krusei 1447. In words: Broth microdilution MIC and MFC (CLSI). The experiment is classed as cell-based.
The next experiment concerns A. fumigatus 390 m. The experiment is described as follows: Broth two-fold microdilution MIC (CLSI). Type of experiment: cell-based, Aspergillus fumigatus. Particulars: A. fumigatus 390 m clinical isolate; RPMI 1640 pH 7.0, 35 °C, 48 h.
In experiment [11] the test system is A. terreus 497. The experiment is described as follows: Broth two-fold microdilution MIC (CLSI). Type of experiment: cell-based. The following applies: A. terreus 497 clinical isolate; RPMI 1640 pH 7.0, 35 °C, 48 h.
In experiment [12] the test system is isolates of Aspergillus spp. The experiment is described as follows: Broth microdilution MIC, ranges over mould isolates. Type of experiment: cell-based. The following applies: range over opportunistic and clinical isolates of Aspergillus spp. (Table 4).
A further experiment concerns Hela cell line. The following applies: previous study; cited from earlier work. From the text: (§2) Accordingly, despite the high IC50 values for this molecule, fairly significant amounts of antibiotic are required to suppress the cell growth in vitro. The calculated therapeutic index value is sufficiently high due to a low cytotoxicity level for normal cells, which is an undeniable advantage over both pre-scorubicin and most other antitumor compou ...

The subject of the next experiment is HepG2 cell line. The following applies: previous study; cited from earlier work.
Excerpt: as §2

For the substance “Methyldecanoyl-MePro-AHMOD-Ala-Aib-Ile-Iva-βAla-Alaol-Glyol [EmiA, emericellipsin A, nonribosomal lipopeptaibol, major compound of E. alkalina VKPM F1428]”, the inhibition zones in experiment [1] is recorded as 20–25 mm. Besides, the IC50 (usually the concentration that inhibits the measured activity by half) in experiment [2] was found to be 8 ± 1.04 µM; in experiment [3], 11 ± 1.2 µM; in [4], 16 ± 2.08 µM; in experiment [5] (HPF normal fibroblasts, MTT, 72 h, three experiments, each in triplicate), 11.5 ± 1.5 µM; in experiment [6], 2.3 ± 0.3 µM. Moreover, the “antiproliferative activity inferior to doxorubicin” value in [5] (interaction with PFH, relative to doxorubicin) worked out at 60 times. Besides, the MIC/MFCs range in experiment [7] fell in the range of 0.25 to 4 µg/mL. Besides, the “Zone of Inhibition” value with A. fumigatus VKM F-37 is 20 ± 0.3 mm; in the experiment on A. terreus 497 [8], 14 ± 0.28 mm; in the experiment with A. terreus 3 K [10], 12 ± 0.25 mm. Further, the “Minimal Inhibitory Concentration (MIC)” value in the experiment on A. niger ATCC 16404 was 4 µg/mL; with A. terreus 3 K [9] it was 0.5 µg/mL; with A. fumigatus 390 m, 2 µg/mL; in the experiment on A. terreus 497 [11], 1 µg/mL. Besides, the MFC against C. tropicalis 156 (C. tropicalis 156, lowest concentration causing 95% death) is 2 µg/mL; in the experiment on C. krusei 1447 (C. krusei 1447, lowest concentration causing 95% death), 2 µg/mL. The MIC (usually the least concentration at which growth counts as inhibited) stood at 1 µg/mL with C. tropicalis 156 (C. tropicalis 156 clinical isolate, RPMI 1640 pH 7.0, 35 °C, 24 h) and 0.5 µg/mL with C. krusei 1447 (C. krusei 1447 clinical isolate, RPMI 1640 pH 7.0, 35 °C, 24 h). In [12], this substance had an MIC range of 0.5 to 4 µg/mL. Besides, the EC50 (usually the concentration that produces a half-maximal response) is less than 0.5 µM in the experiment with Hela cell line and 2.8 µM with HepG2 cell line.
